Like-named read-outs stand apart in the source and are kept apart here.
What was measured:
[1] = In vitro binding of 5-MeO-DMT to plasma proteins, high throughput dialysis; type: in vitro ADME
Description: Following evaluation of the equilibration data, plasma protein binding was investigated at nominal concentrations of 0.1, 1 and 10 μM using a 4-hour dialysis time. […]

[2] = Pharmacokinetics of 5-MeO-DMT and bufotenine after single inhaled dose; type: in vivo, human; conditions: for Cmax: human, plasma, inhaled or intranasal, inhalation, n=8, read-out: Median Cmax
Description: Blood samples were obtained at 1; 2; 4; 7; 10; 15; 20; 30; 45 min and 1; 1.5; 2; 3; 4 hours after administration.
PK parameters were generated by algebraic analysis of the concentration versus time plots for each individual. The analysis was carried out using the software Phoenix WinNonlin 6.3.

**Q.** For `COc1ccc2[nH]cc(CCN(C)C)c2c1` [5-MeO-DMT], which fraction unbound at 4 h ([1]; human plasma) is on record?
**A.** 0.77 to 0.87

**Q.** What about the fraction unbound at 4 h, 0.1 μM ([1]; human, 0.1 μM, 4-hour dialysis, read-out: Free Fraction in human plasma) of the same compound?
**A.** 0.787

**Q.** What about the fraction unbound at 4 h, 1 μM ([1]; human, 1 μM, 4-hour dialysis, read-out: Free Fraction in human plasma) of the same compound?
**A.** 0.773

**Q.** And the fraction unbound at 4 h, 10 μM ([1]; human, 10 μM, 4-hour dialysis, read-out: Free Fraction in human plasma)?
**A.** 0.87

**Q.** And the Detectability in plasma ([2]; 3 hours after inhalation, 6, 12, 18 mg)?
**A.** no longer detectable

**Q.** What about the Cmax ([2]; 6 mg group) of the same compound?
**A.** 11.8 ng/mL

**Q.** And the Cmax ([2]; 12 mg group)?
**A.** 22.9 ng/mL

**Q.** What about the Cmax ([2]; 18 mg group) of the same compound?
**A.** 38.5 ng/mL

**Q.** What about the “Accumulation upon repeated administration” value ([2]; repeated administration within 1 to 4 hours) of the same compound?
**A.** No accumulation

— patent US20240108601A1, “TREATMENT OF MENTAL DISORDERS” (GH Research Ireland Limited, priority 2022, published 2024)
